Tested on: A375_aEGFR2
Experiment: pERK immunofluorescence normalised to no-drug reference (=1); higher = more ERK phosphorylation (less pathway inhibition)
Details: drug treatment time 24 h, EGF time 8 h
Experimental: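 A375 CRISPRa-EGFR (A375_aEGFR2) or HT29 cells were treated with two-drug dose combinations (vemurafenib, LY3009120, cobimetinib) for 24 h, then stimulated with EGF (100 ng/mL) or mock medium for 8 h. pERK (T202/Y204) was measured by immunofluorescence as the cytosolic population average, normalised to an untreated no-drug reference of the block (=1). Averages of 2 technical replicates. A375 in 5% FBS, HT29 in 10% FBS.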

CNc1ncc2cc(-c3cc(NC(=O)NCCC(C)(C)C)c(F)cc3C)c(C)nc2n1 + O=C(c1ccc(F)c(F)c1Nc1ccc(I)cc1F)N1CC(O)([C@@H]2CCCCN2)C1 [Cobimetinib]
pERK immunofluorescence normalised
Details	EGF 0 ng/mL	EGF 100 ng/mL
drug A concentration 0 µM, drug B concentration 31.62 pM	1.06	0.985
drug A concentration 0 µM, drug B concentration 0.0001 µM	1.04	0.985
drug A concentration 0 µM, drug B concentration 0.000316228 µM	1.08	0.976
drug A concentration 0 µM, drug B concentration 0.001 µM	0.997	0.964
drug A concentration 0 µM, drug B concentration 0.00316228 µM	0.841	0.85
drug A concentration 0 µM, drug B concentration 0.01 µM	0.546	0.726
drug A concentration 0 µM, drug B concentration 0.0316228 µM	0.29	0.564
drug A concentration 0 µM, drug B concentration 0.1 µM	0.243	0.541
drug A concentration 0 µM, drug B concentration 0.316228 µM	0.235	0.428
drug A concentration 0 µM, drug B concentration 1 µM	0.235	0.278
drug A concentration 0.0001 µM, drug B concentration 0 µM	1.07	0.987
drug A concentration 0.0001 µM, drug B concentration 31.62 pM	0.993	0.987
drug A concentration 0.0001 µM, drug B concentration 0.0001 µM	1.05	1.01
drug A concentration 0.0001 µM, drug B concentration 0.000316228 µM	1.01	0.946
drug A concentration 0.0001 µM, drug B concentration 0.001 µM	0.966	0.944
drug A concentration 0.0001 µM, drug B concentration 0.00316228 µM	0.816	0.848
drug A concentration 0.0001 µM, drug B concentration 0.01 µM	0.498	0.692
drug A concentration 0.0001 µM, drug B concentration 0.0316228 µM	0.284	0.606
drug A concentration 0.0001 µM, drug B concentration 0.1 µM	0.242	0.545
drug A concentration 0.0001 µM, drug B concentration 0.316228 µM	0.234	0.416
drug A concentration 0.0001 µM, drug B concentration 1 µM	0.233	0.259
drug A concentration 0.000316228 µM, drug B concentration 0 µM	1.05	1.03
drug A concentration 0.000316228 µM, drug B concentration 31.62 pM	0.999	1.03
drug A concentration 0.000316228 µM, drug B concentration 0.0001 µM	1.02	1.03
drug A concentration 0.000316228 µM, drug B concentration 0.000316228 µM	1.01	0.998
drug A concentration 0.000316228 µM, drug B concentration 0.001 µM	0.945	0.935
drug A concentration 0.000316228 µM, drug B concentration 0.00316228 µM	0.829	0.882
drug A concentration 0.000316228 µM, drug B concentration 0.01 µM	0.517	0.722
drug A concentration 0.000316228 µM, drug B concentration 0.0316228 µM	0.298	0.611
drug A concentration 0.000316228 µM, drug B concentration 0.1 µM	0.245	0.533
drug A concentration 0.000316228 µM, drug B concentration 0.316228 µM	0.233	0.352
drug A concentration 0.000316228 µM, drug B concentration 1 µM	0.233	0.234
drug A concentration 0.001 µM, drug B concentration 0 µM	1.02	1
drug A concentration 0.001 µM, drug B concentration 31.62 pM	0.985	0.999
drug A concentration 0.001 µM, drug B concentration 0.0001 µM	1	0.937
drug A concentration 0.001 µM, drug B concentration 0.000316228 µM	1.02	0.923
drug A concentration 0.001 µM, drug B concentration 0.001 µM	0.892	0.935
drug A concentration 0.001 µM, drug B concentration 0.00316228 µM	0.807	0.832
drug A concentration 0.001 µM, drug B concentration 0.01 µM	0.498	0.709
drug A concentration 0.001 µM, drug B concentration 0.0316228 µM	0.288	0.558
drug A concentration 0.001 µM, drug B concentration 0.1 µM	0.238	0.444
drug A concentration 0.001 µM, drug B concentration 0.316228 µM	0.233	0.258
drug A concentration 0.001 µM, drug B concentration 1 µM	0.232	0.218
drug A concentration 0.00316228 µM, drug B concentration 0 µM	0.921	0.917
drug A concentration 0.00316228 µM, drug B concentration 31.62 pM	0.894	0.899
drug A concentration 0.00316228 µM, drug B concentration 0.0001 µM	0.938	0.957
drug A concentration 0.00316228 µM, drug B concentration 0.000316228 µM	0.912	0.905
drug A concentration 0.00316228 µM, drug B concentration 0.001 µM	0.817	0.849
drug A concentration 0.00316228 µM, drug B concentration 0.00316228 µM	0.675	0.753
drug A concentration 0.00316228 µM, drug B concentration 0.01 µM	0.432	0.595
drug A concentration 0.00316228 µM, drug B concentration 0.0316228 µM	0.275	0.439
drug A concentration 0.00316228 µM, drug B concentration 0.1 µM	0.237	0.309
drug A concentration 0.00316228 µM, drug B concentration 0.316228 µM	0.231	0.225
drug A concentration 0.00316228 µM, drug B concentration 1 µM	0.232	0.214
drug A concentration 0.01 µM, drug B concentration 0 µM	0.728	0.795
drug A concentration 0.01 µM, drug B concentration 31.62 pM	0.777	0.778
drug A concentration 0.01 µM, drug B concentration 0.0001 µM	0.787	0.8
drug A concentration 0.01 µM, drug B concentration 0.000316228 µM	0.745	0.753
drug A concentration 0.01 µM, drug B concentration 0.001 µM	0.613	0.674
drug A concentration 0.01 µM, drug B concentration 0.00316228 µM	0.495	0.622
drug A concentration 0.01 µM, drug B concentration 0.01 µM	0.31	0.454
drug A concentration 0.01 µM, drug B concentration 0.0316228 µM	0.247	0.333
drug A concentration 0.01 µM, drug B concentration 0.1 µM	0.24	0.245
drug A concentration 0.01 µM, drug B concentration 0.316228 µM	0.231	0.216
drug A concentration 0.01 µM, drug B concentration 1 µM	0.231	0.212
drug A concentration 0.0316228 µM, drug B concentration 0 µM	0.503	0.601
drug A concentration 0.0316228 µM, drug B concentration 31.62 pM	0.461	0.56
drug A concentration 0.0316228 µM, drug B concentration 0.0001 µM	0.488	0.582
drug A concentration 0.0316228 µM, drug B concentration 0.000316228 µM	0.466	0.546
drug A concentration 0.0316228 µM, drug B concentration 0.001 µM	0.385	0.524
drug A concentration 0.0316228 µM, drug B concentration 0.00316228 µM	0.314	0.441
drug A concentration 0.0316228 µM, drug B concentration 0.01 µM	0.258	0.351
drug A concentration 0.0316228 µM, drug B concentration 0.0316228 µM	0.239	0.263
drug A concentration 0.0316228 µM, drug B concentration 0.1 µM	0.234	0.223
drug A concentration 0.0316228 µM, drug B concentration 0.316228 µM	0.231	0.212
drug A concentration 0.0316228 µM, drug B concentration 1 µM	0.231	0.218
drug A concentration 0.1 µM, drug B concentration 0 µM	0.301	0.436
drug A concentration 0.1 µM, drug B concentration 31.62 pM	0.293	0.419
drug A concentration 0.1 µM, drug B concentration 0.0001 µM	0.302	0.422
drug A concentration 0.1 µM, drug B concentration 0.000316228 µM	0.286	0.399
drug A concentration 0.1 µM, drug B concentration 0.001 µM	0.273	0.373
drug A concentration 0.1 µM, drug B concentration 0.00316228 µM	0.251	0.347
drug A concentration 0.1 µM, drug B concentration 0.01 µM	0.238	0.281
drug A concentration 0.1 µM, drug B concentration 0.0316228 µM	0.232	0.233
drug A concentration 0.1 µM, drug B concentration 0.1 µM	0.231	0.215
drug A concentration 0.1 µM, drug B concentration 0.316228 µM	0.23	0.211
drug A concentration 0.1 µM, drug B concentration 1 µM	0.231	0.211
drug A concentration 0.316228 µM, drug B concentration 0 µM	0.246	0.336
drug A concentration 0.316228 µM, drug B concentration 31.62 pM	0.248	0.325
drug A concentration 0.316228 µM, drug B concentration 0.0001 µM	0.25	0.339
drug A concentration 0.316228 µM, drug B concentration 0.000316228 µM	0.246	0.317
drug A concentration 0.316228 µM, drug B concentration 0.001 µM	0.245	0.298
drug A concentration 0.316228 µM, drug B concentration 0.00316228 µM	0.238	0.272
drug A concentration 0.316228 µM, drug B concentration 0.01 µM	0.235	0.234
drug A concentration 0.316228 µM, drug B concentration 0.0316228 µM	0.232	0.216
drug A concentration 0.316228 µM, drug B concentration 0.1 µM	0.232	0.211
drug A concentration 0.316228 µM, drug B concentration 0.316228 µM	0.23	0.211
drug A concentration 0.316228 µM, drug B concentration 1 µM	0.231	0.212
drug A concentration 1 µM, drug B concentration 0 µM	0.239	0.26
drug A concentration 1 µM, drug B concentration 31.62 pM	0.24	0.254
drug A concentration 1 µM, drug B concentration 0.0001 µM	0.248	0.252
drug A concentration 1 µM, drug B concentration 0.000316228 µM	0.238	0.246
drug A concentration 1 µM, drug B concentration 0.001 µM	0.237	0.242
drug A concentration 1 µM, drug B concentration 0.00316228 µM	0.236	0.246
drug A concentration 1 µM, drug B concentration 0.01 µM	0.235	0.217
drug A concentration 1 µM, drug B concentration 0.0316228 µM	0.233	0.223
drug A concentration 1 µM, drug B concentration 0.1 µM	0.234	0.212
drug A concentration 1 µM, drug B concentration 0.316228 µM	0.233	0.21
drug A concentration 1 µM, drug B concentration 1 µM	0.234	0.217
drug A concentration 3.16228 µM, drug B concentration 0 µM	0.245	0.227
drug A concentration 3.16228 µM, drug B concentration 31.62 pM	0.243	0.224
drug A concentration 3.16228 µM, drug B concentration 0.0001 µM	0.243	0.224
drug A concentration 3.16228 µM, drug B concentration 0.000316228 µM	0.242	0.228
drug A concentration 3.16228 µM, drug B concentration 0.001 µM	0.241	0.219
drug A concentration 3.16228 µM, drug B concentration 0.00316228 µM	0.24	0.215
drug A concentration 3.16228 µM, drug B concentration 0.01 µM	0.237	0.214
drug A concentration 3.16228 µM, drug B concentration 0.0316228 µM	0.239	0.214
drug A concentration 3.16228 µM, drug B concentration 0.1 µM	0.238	0.218
drug A concentration 3.16228 µM, drug B concentration 0.316228 µM	0.238	0.213
drug A concentration 3.16228 µM, drug B concentration 1 µM	0.239	0.215
